Data from patent US9981923B2, “1,2,3 Triazole antifungal agents and preparation thereof” (COUNCIL OF SCIENTIFIC & INDUSTRIAL RESEARCH, priority 2014, dated 2018).
Values after ≈ are worked out from the molar mass of the structure shown.

Assays:
[1] = test system: Cryptococcus neoformans ATCC 34664; assay: Antifungal susceptibility by microbroth dilution (CLSI); assay type: cell-based; conditions: Table 1; 48 h, >90% inhibition of growth
Description: (§1) The synthesized compounds were evaluated for antifungal susceptibility by microbroth dilution method according to the recommendations of the Clinical Laboratory Standards Institute (CLSI 2008). Briefly, appropriate amount of compounds were dissolved in dimethyl sulfoxide to get 100× final strength. The stock was then diluted 1:50 in RPMI/YPG medium and 200 μl from this was added to the first row of a 96-well microtitre plate. The compounds were serially diluted two fold in successive wells to get a range of 1-128 μg/ml. Fungal yeast cells (˜2×10^3 cfu/mL), freshly grown in YPG broth in logarithmic phase, were suspended in the medium and inoculated (100 μl) in the wells of the plate. For filamentous fungi, 2×10^4 spores/mL were added. The microtitre plate was incubated for 48 h, and the absorbance was measured at 600 nm by using microtitre plate reader to assess cell growth.

[2] = test system: Candida glabrata NCYC 388; assay: as above; assay type: cell-based; conditions: Table 1; 48 h, >90% inhibition of growth
Description: as §1

[3] = test system: Candida albicans ATCC 24433; assay: as above; assay type: cell-based; conditions: Table 1; 48 h, >90% inhibition of growth; range 1-128 μg/ml
Description: as §1

[4] = test system: Aspergillus niger ATCC 10578; assay: as above; assay type: cell-based; conditions: Table 1; 48 h, >90% inhibition of growth
Description: as §1

[5] = test system: Aspergillus fumigatus MCC 1046; assay: as above; assay type: cell-based; conditions: Table 1; 48 h, >90% inhibition of growth
Description: as §1

[6] = test system: Candida albicans ATCC 10231; assay: as above; assay type: cell-based; conditions: Table 1; 48 h, >90% inhibition of growth
Description: as §1

pathogenic fungi = assay: Antifungal activity, overall assessment of the microbroth dilution results; assay type: cell-based; conditions: based on the MIC results
Description: as §1

ergosterol = assay: Effect of the compounds on sterol profile (spectrophotometric ergosterol quantitation); assay type: cell-based, C. albicans ATCC 24433
Description: Inhibition of lanosterol 14 α-demethylase by azoles results in depletion of ergosterol. The depletion can be quantified by spectrophotometry. Briefly, Overnight grown C. albicans ATCC 24433 (1×10^6 cfu/ml) cells were inoculated in a series of flasks containing 50 ml of Yeast extract Peptone Glucose (YPG) broth containing […] of fluconazole per ml as well as 0.5 MIC and MIC of the lead compounds. The cultures were incubated for 24 h with shaking at 30° C. The stationary-phase cells were harvested by centrifugation […] and washed once with sterile distilled water. The net wet weight of the cell pellet was determined. Three milliliters of 25% alcoholic potassium hydroxide solution (25 g of […] and 35 ml of sterile distilled water, brought to 100 ml with 100% ethanol), was added to 125 mg of pellet and vortex mixed for 1 min. Cell suspensions were transferred to sterile borosilicate glass screw-cap tubes and were incubated in an 85° C. water bath for 1 h. Following incubation, tubes were allowed to cool to room temperature. Sterols were then extracted by addition of a mixture of 1 ml of sterile distilled water and 3 ml of n-heptane followed by vigorous vortex mixing for 3 min. The heptane layer was transferred to a clean borosilicate glass screw-cap tube. The sterol extract was scanned spectrophotometrically between 220 and 300 nm with a Spectrophotometer.

[7] = test system: reactive oxygen species (ROS); assay: ROS production using dichlorofluorescin diacetate dye; assay type: cell-based; conditions: C. albicans ATCC 24433, dichlorofluorescin diacetate dye
Description: Apart from lanosterol 14 a-demethylase inhibition, few azoles like miconazole are known to exert their antifungal action by reactive oxygen species (ROS) generation. Therefore ROS production in C. albicans ATCC 24433 was evaluated for these compounds by using dichlorofluorescin diacetate dye. […] ROS can damage a wide range of molecules, including nucleic acids, proteins and lipids, can cause apoptosis, necrotic death and with this wide range of targets it is difficult to determine which events lead to loss of viability of cells following damage.

`CCC(O)(c1ccccc1)c1cn(-c2cc(Cl)ccc2O)nn1` (stereo not shown) [Compound 1da] showed an MIC [1] of 16 µg/mL (≈ 48.5 µM), an MIC [2] of 8 µg/mL (≈ 24.3 µM) and an MIC [3] of 16 µg/mL (≈ 48.5 µM). The MIC [4] was >128 µg/mL, the MIC [5] was >128 µg/mL and the MIC [6] was 16 µg/mL (≈ 48.5 µM). The “antifungal activity, overall assessment” value (pathogenic fungi) was “promising molecules”, the “ergosterol depletion (sterol profile, height of absorbance peaks 220-300 nm)” value (ergosterol; C. albicans ATCC 24433, 24 h, 0.5 MIC and MIC of the lead compounds) was “no ergosterol depletion was observed” and the “inhibition of lanosterol 14 α-demethylase enzyme (concluded from ergosterol depletion)” value (ergosterol; C. albicans ATCC 24433 sterol profile) was “potent inhibitors”. For the same compound, the ROS generation [7] was “dose dependent increase in ROS generation”.
